From patent US10183014B2, “Ocular formulations for drug-delivery and protection of the anterior segment of the eye” (PanOptica, Inc., priority 2014, dated 2019)

What was measured:
EGFR [1] = molecular target: T1, EGFR (Homo sapiens, UniProt P00533); assay: EGFR tyrosine phosphorylation assay in hTCEpi cells with a second active agent; format: cell-based; conditions: vitamin K 50 μM, nicotinic acid 10 μM or nicotinamide 10 μM, 4 hours pre-treatment, EGF 50 ng/ml
T1 construct: endogenous in cells; host or cells: hTCEpi (immortalized corneal epithelial cells)
T1 sequence (P00533 25-1210): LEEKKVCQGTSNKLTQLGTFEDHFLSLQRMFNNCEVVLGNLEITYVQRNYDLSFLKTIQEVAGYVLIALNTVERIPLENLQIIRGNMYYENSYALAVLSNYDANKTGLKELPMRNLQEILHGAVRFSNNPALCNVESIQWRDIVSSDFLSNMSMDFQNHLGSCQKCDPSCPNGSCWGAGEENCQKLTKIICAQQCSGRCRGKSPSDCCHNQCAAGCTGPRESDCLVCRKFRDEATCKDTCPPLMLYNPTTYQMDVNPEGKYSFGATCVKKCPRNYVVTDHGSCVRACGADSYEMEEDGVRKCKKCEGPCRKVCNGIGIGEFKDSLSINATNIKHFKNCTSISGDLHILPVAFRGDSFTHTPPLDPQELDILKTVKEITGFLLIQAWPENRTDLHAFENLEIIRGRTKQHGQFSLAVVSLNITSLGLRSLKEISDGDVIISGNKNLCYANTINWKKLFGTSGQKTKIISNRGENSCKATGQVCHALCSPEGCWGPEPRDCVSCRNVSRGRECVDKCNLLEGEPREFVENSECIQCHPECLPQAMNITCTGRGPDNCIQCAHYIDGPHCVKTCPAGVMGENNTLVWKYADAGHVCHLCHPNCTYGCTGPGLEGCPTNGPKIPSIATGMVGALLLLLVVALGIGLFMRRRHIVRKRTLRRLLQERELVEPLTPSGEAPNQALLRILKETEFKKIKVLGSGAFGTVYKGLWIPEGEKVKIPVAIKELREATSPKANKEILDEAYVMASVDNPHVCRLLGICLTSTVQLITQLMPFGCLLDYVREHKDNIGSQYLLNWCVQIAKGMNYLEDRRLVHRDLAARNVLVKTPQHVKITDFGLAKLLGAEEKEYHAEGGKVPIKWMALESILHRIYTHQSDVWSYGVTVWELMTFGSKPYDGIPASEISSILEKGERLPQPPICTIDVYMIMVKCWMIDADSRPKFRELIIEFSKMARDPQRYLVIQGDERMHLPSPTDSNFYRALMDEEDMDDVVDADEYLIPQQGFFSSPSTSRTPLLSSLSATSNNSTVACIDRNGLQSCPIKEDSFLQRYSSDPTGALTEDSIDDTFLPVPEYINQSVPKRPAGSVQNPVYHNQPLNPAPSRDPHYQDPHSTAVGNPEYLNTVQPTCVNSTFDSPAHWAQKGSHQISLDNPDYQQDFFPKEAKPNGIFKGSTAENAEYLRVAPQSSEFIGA
Experimental: An EGFR tyrosine assay in corneal epithelial cells is run to determine if Vitamin K or nicotinic acid/nicotinamide can overcome inhibition of EGFR and if there is an increase in EGFR activity. […] Cells are harvested cells and immunoblotted for determination of phosphorylated EGFR (tyrosine 1068 and tyrosine 1045) and total EGFR concentration which was used to determine receptor activity (IC50).
The cells were then incubated with EGF (50 ng/ml) for 15 minutes. Cells were harvested and cell lysates were immunoblotted for determination of phosphorylated EGFR (tyrosine 1068 and tyrosine 1045) and total EGFR concentration.

EGFR [2] = molecular target: T1, EGFR; assay: Mechanism by which menadione enhances EGFR activity (hTCEpi immunoblot); format: cell-based; set-up: Kinetics of EGFR degradation: dose or concentration left out as unconfirmed
Experimental: […] Cells were then incubated with 8.0 nM (50 ng/ml) EGF for 0-3 hours. The cells were lysed and the lysates were resolved by SDS-PAGE, and immunoblotted for phosphorylated EGFR (pY1068), total EGFR, or α-tubulin.

[3] = Particle size distribution by laser diffraction light scattering; format: physicochemical; conditions: 5% menadione, HPMC formulation, roller milled; 40° C.
Experimental: Particle size distribution can be analyzed using laser diffraction light scattering, e.g., with a Horiba LA-950 V2. Generic assumptions are made in setting conditions and the refractive index value. The distributions are volume based. Sample density is adjusted to a generic range of percent transmission on the blue LED light source. A small sample cell (filled with water) can be used rather than the flow through cell, to minimize sample quantity.
Particle size distribution was analyzed using laser diffraction light scattering with a Horiba LA-950 V2. Generic assumptions were made in setting conditions and the refractive index value. The distributions were volume based. Sample density was adjusted to a generic range of percent transmission on the blue LED light source. A small sample cell (filled with water) was used rather than the flow through cell, to minimize sample quantity.

hTCEpi cells = assay: Cell migration/proliferation (in vitro wound healing) in hTCEpi cells: compound and second active agent; format: cell-based; conditions: 0.3 μM menadione
Experimental: Determination of cell migration/proliferation in corneal epithelial cells is run to determine cell migration/proliferation in the presence of varying concentrations of a compound of Formula I or II, vitamin K, or nicotinic acid/nicotinamide. Cells are plated with silicone plugs. The cells are then serum starved and pre-treated with varying concentrations of a compound of Formula I or II or a control. The plugs are removed and the cells are treated with 1) EGF, 2) EGF and vitamin K or 3) EGF and nicotinic acid/nicotinamide. Cell migration is quantified from micrographs.
hTCEpi cells were plated with silicone plugs. The cells were then serum starved and pre-treated with varying concentrations of vitamin K3 analog, menadione, for 4 hours and supplemented with the varying concentrations of a compound of Formula I or II for 30 minutes. The plugs were removed. The cells were photographed and then treated with various concentrations of vitamin K, EGF, and/or a compound of Formula I or II. The cells were again photographed and cell migration was quantified from the micrographs. Additional controls run included no compound of Formula I or II and no EGF. All experiments were repeated three times.

[4] = Ocular pharmacokinetics of formulations, Example 20-3; format: in vivo, Dutch Belted rabbits; conditions: 1.0 μM Vit K3 suspension, 30 μL/eye/dose QD for 4 Days, 1 hr post dose on Day 5; for Vitamin K3 concentration in Cornea: LLOQ = 2.91 μM; for Vitamin K3 concentration in Central Choroid: LLOQ = 43.6 μM
Experimental: The study design (Table 17-1) consisted of thirty-nine (39) Dutch Belted rabbits, each receiving a 30 μL bilateral topical ocular dose. Various suspension formulations of the present application were evaluated and compared against two control formulations: a) a cyclodextrin-based eye drops solution (Control Group 13, Table 17-1), and b) a pilot suspension formulation used in previous rabbit pharmacokinetic studies, (Group 10, Table 17-1). Formula II or Compound-I was used in the test suspensions, whereas the Eye Drops solution formulation is derived with the Compound-I.
(§1) Ocular sampling occurred one hour following the first daily dose on Day 5 for all groups. Whole blood samples using K2EDTA as an anticoagulant were collected from all animals on Day 5, 1 hour post dose. The whole blood was placed on ice until samples were spun in a centrifuge to separate the plasma. Aqueous humor, conjunctiva, cornea, central retina, peripheral retina, central choroid, and peripheral choroid samples were collected following necropsy. Samples were then frozen at −70° C. or lower. For all Groups 1-13, plasma, central retina, central choroid, and cornea samples were assayed.
Additionally, Vitamin K3 concentrations were determined in plasma, central retina, central choroid, and cornea samples for animals from Groups 8 and 9. A calibration curve prepared in control matrix was used to determine the concentration of Vitamin K3.

[5] = Ocular pharmacokinetics of formulations, Example 20-5; format: in vivo, Dutch Belted rabbits
Experimental: The study design (Table 19-1) consisted of forty-seven (47) Dutch Belted rabbits, each receiving a 30 μL bilateral topical ocular dose. Various suspension formulations of the present application were evaluated and compared against a cyclodextrin-based eye drops solution (Control Group 1, Table 19-1). Formula II or Compound-I was used in the test suspensions as well as the Eye Drops solution.
as §1, with “1-15,” for “1-13,”, “assayed. For Group 5 only, samples were analyzed for Vitamin K3.” for “assayed.”
An analytical method for the analysis of Vitamin K3 was determined in plasma, central retina, central choroid, and cornea samples from Group 5 animals. A calibration curve prepared in control vitreous humor was used to determine the concentration of Vitamin K3. Internal standard (IS) responses were inconsistent for the central choroid and plasma samples. Thus, positive plasma results were likely due to the reduced IS response.

corneas of C57/Bl mice = assay: Corneal wound healing in vivo with a second active agent; conditions: 0.3 μM menadione, 48 hours pre-treatment
Experimental: Determination of the effects of a compound of Formula I or II and/or a second active agent on corneal wound healing was determined in mice. Corneas of C57/Bl mice are wounded and then pre-treated with a compound of Formula I or II, followed by addition of EGF, vitamin K, or nicotinic acid/nicotinamide. Wound size and closure are monitored.
Corneas of 8 week old C57/Bl mice were pre-treated with topical administration of vehicle, 0.3 μM menadione, 10 μM of a compound of Formula I or II, 0.3 μM menadione and 10 μM of a compound of Formula I or II 48 hours before the corneas were wounded (1.5 mm superficial epithelial wound). Wound size was monitored by fluorescein staining and fluorescent photography. Wound closure was monitored over the course of 40 hours.

[6] = Group 8: Formula II 4 mg/mL, HPMC
[7] = Group 9: Formula II 4 mg/mL, Pluronic

- Stability of suspension [3]: short term stability
- Vitamin K3 concentration in Cornea [4, 6]: <LLOQ
- Vitamin K3 concentration in Central Choroid [4, 6]: <LLOQ
- Vitamin K3 concentration in Plasma ([4]; Group 8: Formula II 4 mg/mL, HPMC, average n = 3, LLOQ = 0.291 μM): <LLOQ
- Vitamin K3 concentration in Cornea [4, 7]: <LLOQ
- Vitamin K3 concentration in Central Retina ([4]; Group 9: Formula II 4 mg/mL, Pluronic, LLOQ = 11.6 μM): <LLOQ
- Vitamin K3 concentration in Central Choroid [4, 7]: <LLOQ
- Vitamin K3 in central retina and cornea samples ([5]; Group 5): no quantitative results
- Vitamin K3 Cornea concentration ([5]; Group 5: Compound-I 4 mg/mL suspension with Vitamin K3 1 μM, QD for 4 days, 1 hr post dose on Day 5, LLOQ = 0.145 μM): <LLOQ
- Vitamin K3 Central Retina concentration ([5]; Group 5: Compound-I 4 mg/mL suspension with Vitamin K3 1 μM, QD for 4 days, 1 hr post dose on Day 5, LLOQ = 0.581 μM): <LLOQ
Structure (SMILES): CC1=CC(=O)c2ccccc2C1=O [menadione]
- Effect on Formula I or II compound-mediated EGFR inhibition (EGFR [1]): overcome
- Effect on Formula I or II compound-mediated EGFR inhibition (EGFR [1]; listed as vitamin K3): most effectively attenuated
- Basal EGFR phosphorylation and EGFR dephosphorylation (EGFR [2]; 0.3 or 3.0 μM, 4 hours, 50 ng/ml EGF 0-3 hours): did not change
- Kinetics of EGFR degradation (EGFR [2]; menadione): slowed the kinetics of EGFR degradation
- Effect on inhibition of in vitro wound healing by a compound of Formula I or II (hTCEpi cells): reversed
- Effect on corneal epithelial wound healing after pre-treatment with a compound of Formula I or II (10 μM) (corneas of C57/Bl mice): reversed the effects
